Data on two compounds can be found in patent publication US20080274096A1, “Fusion Proteins Having a Modulated Half-Life in Plasma” (ASTRAZENECA AB, priority 2005, published 2008).

Holding throughout (assay type): biochemical
Series [1] addresses T1, Human recombinant Neprilysin (Homo sapiens, UniProt P08473). The series can be described thus: Inhibition of Neprilysin degradation of amyloid β1-40 peptide in buffer. More on the design: Degradation of Amyloid β Peptide by Soluble Neprilysin; purchased R&D Systems. To be noted: 10 microM Phosphoramidone; Neprilysin 1.8 μg/ml; 3 hours, 37° C.
Protocol: The assay is measuring the remaining amyloid β1-40 peptide (Bachem) concentration following its incubation in the presence of Neprilysin (R&D Systems) with or without Neprilysin inhibitor. 100 μl of reaction mixture containing of amyloid β1-40 peptide (final concentration 1 or 10 μM) and/or Neprilysin (1.8 μg/ml), and/or Phosphoramidone (10 μM) was incubated in a round bottom 96-well polypropylene plate at 37° C. for 3 hours. Following incubation, 50 μl of antibodies solution containing anti-Aβ40 (final concentration 0.125 μg/ml; Biosource) and Biotinylated 6E10 (final concentration 0.125 μg/ml; Signet) antibodies was added to each well. Plate was incubated at RT for 3 h. Following incubation, 50 μl of detection mixture of Dynabeads M280 (Dynal Biotech ASA) and secondary antibody Ru-GαR (final concentration 0.132 μg/ml) was added to all wells. Plate was incubated on a shaker at RT for 1 h and results were recorded on IGEN/Bio Veris M8 analyser. Amyloid β1-40 peptide degradation by Neprilysin was calculated as a percentage of Amyloid β1-40 peptide left after incubation in the presence of Neprilysin compared to the amyloid β1-40 peptide concentration in the absence of Neprilysin.
Series [2] has as its target T1, Human recombinant Neprilysin. Nature of the series: Inhibition of added Neprilysin degradation of Aβ40 in guinea pig plasma. More on the design: purchased R&D Systems; host or cells: enzyme added to pooled heparinized guinea pig plasma. To be noted: 10 microM Phosphoramidon.
Protocol: Blood was withdrawn from anaesthetized guinea pigs by heart puncture. The blood were collected into prechilled heparin-plasma tubes and centrifuged for 10 min at 4° C. at 3000×g within 20 minutes of sampling. Plasma samples were transferred to pre-chilled polypropylene tubes and immediately frozen on dry ice and stored at −70° C. prior to use. The experiments were performed on a pool of plasma from 5-6 guinea pigs.
Human recombinant Neprilysin in a buffer containing 25 mM Tris and 100 mM NaCl pH 8 (R&D Systems) or buffer only (i.e. vehicle) was incubated with guinea pig plasma at 37° C. for 0-360 minutes in presence or absents of 10 microM phosphoramidon (Biomol). A final concentration of 4.7 mM EDTA was added into the tubes before the amount of Aβ1-40 or Aβ1-42 was analyzed by using commercial ELISA kits obtained from Biosource (Aβ1-40) or Innogenetics (Aβ1-42).
A further series relates to amyloid β peptide. The series can be described thus: Two-compartment membrane experiment, degradation of amyloid β peptide. The settings on record: degradation in one compartment connected through a membrane. Here is the method: An experiment is performed to investigate the possibility to remove amyloid β peptide from one compartment by degradation in another compartment connected through a membrane. A similar experiment was conducted using an antibody as an amyloid β peptide agent. The experiment is described by DeMattos et al., (PNAS, 2001). By degrading the amyloid β peptide with neprilysin and/or NEP-Fc in one compartment the concentration of amyloid β peptide in the other compartment is decreased. Importantly, neprilysin or NEP-Fc cannot cross the membrane due to its high molecular weight (161.000 Da and 211.000 Da, respectively).

T1 sequence (P08473 52-750 limits assumed): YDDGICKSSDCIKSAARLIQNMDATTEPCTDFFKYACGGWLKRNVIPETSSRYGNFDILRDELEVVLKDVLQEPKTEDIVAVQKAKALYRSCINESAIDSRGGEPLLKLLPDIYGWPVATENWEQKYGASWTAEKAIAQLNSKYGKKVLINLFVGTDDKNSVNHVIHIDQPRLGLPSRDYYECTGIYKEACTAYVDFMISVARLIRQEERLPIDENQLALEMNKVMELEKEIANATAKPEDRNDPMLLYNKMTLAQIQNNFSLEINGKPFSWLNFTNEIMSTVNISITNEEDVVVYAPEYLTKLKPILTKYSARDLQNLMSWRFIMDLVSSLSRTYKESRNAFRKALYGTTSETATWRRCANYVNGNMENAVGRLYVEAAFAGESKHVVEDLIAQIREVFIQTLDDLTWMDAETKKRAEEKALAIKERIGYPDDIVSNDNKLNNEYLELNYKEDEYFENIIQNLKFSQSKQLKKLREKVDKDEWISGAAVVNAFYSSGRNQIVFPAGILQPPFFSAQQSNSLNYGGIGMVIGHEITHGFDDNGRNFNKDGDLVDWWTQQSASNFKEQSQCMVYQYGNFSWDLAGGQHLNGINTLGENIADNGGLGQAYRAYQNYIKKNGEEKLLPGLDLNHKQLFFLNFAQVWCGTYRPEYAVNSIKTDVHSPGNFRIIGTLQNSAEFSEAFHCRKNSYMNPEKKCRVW

For the compound `CC(C)C[C@H](NP(=O)(O)O[C@@H]1O[C@@H](C)[C@H](O)[C@@H](O)[C@H]1O)C(=O)N[C@@H](Cc1c[nH]c2ccccc12)C(=O)O` [Phosphoramidon], in series [1], the “Neprilysin activity (Aβ1-40 degradation) in the presence of inhibitor” value is “completely abolished”. Besides, the “Degradation of Aβ40 by added Neprilysin in the presence of inhibitor” value in series [2] is “inhibited”.

Consider “NEP-Fc: extracellular domain of Neprilysin fused to the IgG4 Fc domain including hinge region, SEQ ID 8”, for which, in the series on amyloid β peptide, the “Concentration of amyloid β peptide in the other compartment” value is on record as “decreased”.
